Measurements taken from patent publication US7781199B2, “Identification of a JAK2 mutation involved in Vaquez Polyglobulia” (priority 2004, dated 2010).
Entries after “also recorded” stand apart in the source; their conditions may differ.

Assays:
V617F JAK2 = assay: Expression of V617F JAK2 in HEL cells after siRNA treatment; format: cell-based, human; conditions: 24 hours after treatment (FIGS. 8 and 9)
Experimental: FIGS. 8 and 9: Expression of V617F Jak2 in HEL cells is reduced 24 hours after treatment with siRNA specific to JAK2 V617F Jak2 (siRNA #1, 3 and 4).
Lanes 0 to 6: HEL cells treated (1 to 6) or non-treated (0) with siRNA V617F Jak2.
Lane C+: 293HEK cells transfected with the V617F Jak2RV vector
(§1) The results are shown FIGS. 8, 9 and 10.

wild-type JAK2 = assay: Expression of wild-type JAK2 in K562 cells after siRNA treatment; format: cell-based, human; conditions: 24 hours after treatment (FIG. 10)
Experimental: FIG. 10: Level of WT Jak2 expression in K562 cells remains unchanged 24 hours after treatment with siRNA specific to Jak2 V617.
Lane Je: K562 cells treated with siRNA WT Jak2
Lanes 0 to 6: K562 cells treated with siRNA V617F Jak2
Lane C−: 293HEK (no expression of JAK2).
as §1

Substance	expression of V617F Jak2 protein (V617F JAK2)	level of WT Jak2 expression (wild-type JAK2)
siRNA 1: siRNA specific to the V617F JAK2 mutation; said to correspond to SEQ ID No 25 (probably No 29, UGGAGUAUGUUUCUGUGGA) (listed as RNA, chemistry not given here)	reduced; also recorded: inhibit	without inhibiting
siRNA 3: siRNA specific to the V617F JAK2 mutation; said to correspond to SEQ ID No 26 (probably No 30, GGAGUAUGUUUCUGUGGAG) (listed as RNA, chemistry not given here)	reduced; also recorded: inhibit	without inhibiting
siRNA 4: siRNA specific to the V617F JAK2 mutation; said to correspond to SEQ ID No 27 (probably No 31, GAGUAUGUUUCUGUGGAGA) (listed as RNA, chemistry not given here)	reduced; also recorded: inhibit	without inhibiting
